According to patent US20140155327A1, “Process for the Synchronization of Ovulation for Timed Breeding Without Heat Detection” (priority 2003, published 2014):

Tested on: postpartum sows
Assay: Single timed injection 96 hours post-weaning and single timed insemination without estrus detection in postpartum sows (Example 3)
Assay type: in vivo, swine
Details: 50 mcg at 96 hours post-weaning
Protocol: Approximately 170 postpartum sows were randomly divided into two equal groups comprised of controls and treated. Following weaning, the controls were detected for estrus and bred following the normal standard operating procedures for the farms on which they resided. The treated sows received a 50 mcg dose of deslorelin in SAIB at 96 hours post-weaning and were bred with a single insemination 28+/−2 hours later with no regard to estrus detection. The sows were examined for pregnancy by ultrasound at 21 days and slaughtered around 28 days post breeding. The entire reproductive tract was removed and corpora lutea and embryos were counted.

`CCNC(=O)[C@@H]1CCCN1C(=O)[C@H](CCCN=C(N)N)NC(=O)[C@H](CC(C)C)NC(=O)[C@@H](Cc1c[nH]c2ccccc12)NC(=O)[C@H](Cc1ccc(O)cc1)NC(=O)[C@H](CO)NC(=O)[C@H](Cc1c[nH]c2ccccc12)NC(=O)[C@H](Cc1cnc[nH]1)NC(=O)[C@@H]1CCC(=O)N1` [Deslorelin, deslorelin] was tested, and the “Sows Pregnant” value (single insemination 28+/-2 hours later, 84 in group) was 60 and the “Embryo Survival” value (slaughter around 28 days post breeding) was 64%.
